Measurements as given in paper doi:10.1101/2023.05.04.537313v1 (biorxiv, 2023).

Biological target: T1, SLC1A3 (Homo sapiens, UniProt P43003)
T1 construct: overexpressed in HEK293-JI cells co-expressing iAspSnFR
Test: cellular uptake read by iAspSnFR, flow cytometry
Assay type: cell-based
Conditions: range is the 95% CI, no central value printed; 3 h starved cells, 30 min incubation; first (TFB-TBOA-sensitive) phase of a biphasic curve; read-out: K0.5

T1 sequence (P43003 whole entry): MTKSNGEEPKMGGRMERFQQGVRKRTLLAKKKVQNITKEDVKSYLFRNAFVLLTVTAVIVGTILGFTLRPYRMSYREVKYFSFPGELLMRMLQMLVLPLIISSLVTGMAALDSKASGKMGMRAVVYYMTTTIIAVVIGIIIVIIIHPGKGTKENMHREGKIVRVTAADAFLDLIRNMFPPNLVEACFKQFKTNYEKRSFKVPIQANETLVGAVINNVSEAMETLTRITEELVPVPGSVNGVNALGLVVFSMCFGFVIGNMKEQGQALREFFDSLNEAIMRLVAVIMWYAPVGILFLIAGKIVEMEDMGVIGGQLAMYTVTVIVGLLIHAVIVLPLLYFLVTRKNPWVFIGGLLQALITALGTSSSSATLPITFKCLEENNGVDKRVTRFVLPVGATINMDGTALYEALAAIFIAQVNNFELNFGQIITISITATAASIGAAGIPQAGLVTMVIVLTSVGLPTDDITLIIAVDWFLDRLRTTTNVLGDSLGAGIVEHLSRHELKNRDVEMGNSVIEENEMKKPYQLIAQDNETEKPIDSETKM

Km: 9 to 47 µM
SMILES: N[C@@H](CC(=O)O)C(=O)O [aspartate]
